Data as given in publication PMC10634346 (Cancer Research Communications, 2023).

Tests used:
[1] = test system: PHF23, TP53RK, ZFP36 and JUNB mRNA in blood; assay: RNA-seq DEGs in blood of patients (PHF23, TP53RK, ZFP36, JUNB); format: in vivo, human
Method: Total RNA was extracted from blood of patients and cell lines using RNeasy Plus Mini Kit (QIAGEN, #74136) and cDNA prepared with the Maxima First Strand cDNA Synthesis Kit for RT-PCR (Thermo Fisher Scientific, K1642) according to manufacturer's instructions. The integrity of purified total RNA was evaluated using an Agilent 2100 Bioanalyzer system and RNA 6000 Nano Kit (Agilent, #5067-1511). Differential gene expression analysis was performed (Fios Genomics) from RNA-seq data (Discovery Life Sciences). MYC and MCL1 mRNA levels were measured by qPCR in vitro and in vivo, using a Taqman qPCR system (Thermo Fisher Scientific), TaqMan Fast Universal PCR Master Mix (2X) no AmpErase (#4352042) and TaqMan probes for MYC (Hs00153408_m1) and MCL1 (Hs03043899_m1). RNA-seq data were analyzed using DESeq2 ([35]).
Fifteen patients with refractory or relapsed DH-DLBCL or other MYC+ NHL were treated with enitociclib (30 mg, 21-day cycle, once weekly x3) as a 30-minute intravenous infusion on study days 1, 8, and 15 (NCT02635672). Longitudinal gene expression levels were analyzed by RNA-seq, and enitociclib plasma concentrations were measured using LC/MS-MS. The clinical study protocol was approved by the Institutional Review Board of participating institutions and complied with the Declaration of Helsinki, current Good Clinical Practice guidelines, and local laws and regulations. Written informed consent was provided by all participants prior to the initiation of any study-specific procedure.
RNA-seq data generated from the analysis of two cell lines treated with the three CDK9 inhibitors was analyzed to investigate the differences in gene expression levels between various posttreatment timepoints and the pretreatment samples. Quality control assessment and exploratory data analysis by principal component analysis (PCA) were done on raw counts and on normalized count data. Normalization of RNA-seq count data was done using trimmed mean of M-values normalization and transformed with voom, resulting in log2 counts per million with associated precision weights. […] Significance values (Padj) were adjusted for multiple testing, by controlling the FDR using the Benjamini–Hochberg procedure. […] RNA-seq data generated from blood samples taken from patients before and after their first dose (C1D1) or after multiple doses, before and after their third dose (C1D15) were analyzed and normalized using the same pipeline as cell lines for comparisons.

[2] = Clinical pharmacokinetics, plasma LC/MS-MS (NCT02635672); format: in vivo, human; settings: subject 3, dose lowered from 30 to 22.5 mg, not included in average
[3] = test system: RNA polymerase II Ser2 phosphorylation (p-Ser2) in SU-DHL-10 cells; assay: In vitro washout, p-Ser2 Western blot, SU-DHL-10; format: cell-based, human; settings: 1 µmol/L
Method: Evaluation of the pharmacodynamic extent and duration of CDK9 inhibition were performed in vitro using the human DLBCL cell lines SU-DHL-4 and SU-DHL-10, harboring MYC amplification and MYC overexpression with P57T mutation, respectively. Cells were seeded 18 hours prior to treatment for 4 hours with one of three CDK9 inhibitors, enitociclib (0.25 and1 µmol/L), atuveciclib (1 µmol/L) or KB-0742 (1 µmol/L), cells were washed, and incubation continued until 48 hours posttreatment. Samples were collected before treatment (−4), immediately after treatment (0), and at 1, 2, 4, 8, 12, 16, 24, and 48 hours after washout for RNA sequencing (RNA-seq), qPCR, and Western blotting analyses.
(§1) The levels of p-Ser2, p-Ser5 and total RNA polymerase II, Myc, Mcl-1, cleaved PARP (cPARP), and cleaved Caspase 3 were assessed by Western blotting and quantified near-infrared detection and background corrected quantification of fluorescence intensity on an Odyssey Imaging System with IRDye secondary antibodies (LI-COR Biosciences). For quantification, the protein levels were normalized to GAPDH or HSP90, expressed as a ratio to DMSO or vehicle control at matched timepoints. The normalized relative protein levels of p-Ser2 were used for a treatment effect comparison by performing an ANOVA using PROC MIXED in SAS. The ANOVA model included treatment, timepoints and their interactions as fixed effects. The least square means (LSM), differences between the LSMs and associated P values were generated. The following primary antibodies were used: Rpb1 NTD (D8L4Y) rabbit antibody [Cell Signaling Technology (CST), #14958], anti-RNA polymerase II subunit B1 (phospho CTD Ser-2, clone 3E10) rat antibody (Merck, 04-1571-I), recombinant anti-c-MYC rabbit antibody (Y69; Abcam, #ab32072), MCL1 (D5V5L) rabbit antibody (CST, #39224), cleaved-PARP (Asp214) (E2T4K) mouse antibody (CST, #32563), HSP90 (C45G5) rabbit antibody (CST, #4877), and GAPDH mouse antibody (Zytomed Systems, #ZYT-RGM2-6C5).

[4] = test system: p-Ser2 RNA polymerase II in SU-DHL-10 tumors; assay: Pharmacodynamics in SU-DHL-10 xenograft tumors, p-Ser2; format: in vivo, C.B-17 SCID mice
Method: as §1, with “#ZYT-RGM2-6C5). […]” for “#ZYT-RGM2-6C5).”

[5] = DH-DLBCL and other MYC+ NHL, after C1D1 and C1D15

With `COc1cc(F)ccc1-c1cc(Nc2cc(CS(C)(=N)=O)ccn2)ncc1F` (centres unmarked) [enitociclib] the “PHF23 mRNA fold change from predose” value [1, 5] was “approximately –1 fold change”, the “TP53RK mRNA fold change from predose” value [1, 5] was “–2 fold change” and the “Downregulation of ZFP36 and JUNB mRNA levels” value (shortened to “Downregulation”) ([1]; other MYC+ NHL (n = 3), after C1D1) was “approximately −2 fold change”. For the same molecule, the “Downregulation” value ([1]; other MYC+ NHL (n = 3), after C1D15 (decreased toward)) was ~−1, the “Downregulation” value ([1]; patients with DH-DLBCL, after C1D1 and C1D15) was > −2 and the Tmax ([2]; human, plasma, intravenous, 22.5 mg, read-out: Multiple dose tmax) was 29 min. The “Multiple dose AUC0-t” value [2] was 1,670^b µg^ah/L, the “reduction of p-Ser2” value ([3]; 4-hour treatment then washout) was 50% and the “duration of p-Ser2 reduction” value ([3]; after treatment) was “up to 24 hours”. The “decrease of p-Ser2 levels in tumors” value ([4]; single dose 5 mg/kg, for 8 hours) was “greater than 50%” and the “p-Ser2 in tumors (in words)” value ([4]; single dose 10 and 15 mg/kg, 8 hours postdose timeframe) was “depletion of p-Ser2”.
